In data set [1] the test system is human H460 NSCLC cells. Put plainly: Oral anti-tumor efficacy in human H460 NSCLC xenografts in mice. The class given is in vivo, CD1-Nu/Nu female mice. Particulars: H460 xenograft; oral 100 mg/kg on day 8, 15, 22, 29; versus 5% dextrose or untreated. How it is done:
Human H460 NSCLC cells were obtained from American Type Cell Culture (ATCC) (catalog no. HTB-177, Manassas, Va.). These cells tested negative for viral contamination using the Mouse Antibody Production (MAP) test, performed by Charles River Labs Molecular Division, upon the receipt of the tumor cells from ATCC. The tumor cells were maintained at […] in a humidified 5% CO2 atmosphere in T225 tissue culture flasks containing 50 mL of Roswell Park Memorial Institute (RPMI)-1640 solution with 10% Fetal Bovine Serum (FBS) and 2 mM L-glutamine. Cells were split at a ratio of 1:10 every 2-3 days by trypsinization and resuspended in fresh medium in a new flask. Cells were harvested for experiments in the same way at 70-90% confluency.
CD1-Nu/Nu female mice, ˜4-6 weeks old were obtained from Charles River Laboratories. Mice were housed 5 to a cage in a micro-isolator room in the Department of Animal Laboratory Research of New York State University (SUNY) at Stony Brook. Light-dark cycles were 12 h each daily, with light from 7 a.m. to 7 p.m. […]
An acclimation period of 7 days was allowed between the arrival of the animal at the study site before tumor inoculation and experimentation. […] Tumor dimensions (length and width) were measured daily before, during and after treatment (using Vernier calipers) and the tumor volume was calculated using the prolate ellipsoid formula: (length×width^2)/2. […]
In general terms: A xenograft is tissue or cells of one species grown in another, often human tumour cells in immunodeficient mice.

For data set [2], the system named is BxPC3 pancreatic cancer cells. In words: Oral anti-tumor efficacy in human BxPC3 pancreatic cancer xenografts in mice. The class given is in vivo, CD-1 nude mice. To be noted: BxPC3 xenograft; oral dose of 100 mg/week for 4 weeks; versus 5% dextrose or untreated. The method, then: An acclimation period of 7 days was allowed between the arrival of the animal at the study site before tumor inoculation and experimentation. Mice were inoculated subcutaneously (SC) in the right flank with 2×10^6 human H460 NSCLC or BxPC3 pancreatic cancer cells that were suspended in 0.1 mL of Dulbeco's Phosphate Buffered Salt (PBS) solution using a 1 cc syringe with a 27-⅝ gauge needle. Tumor dimensions (length and width) were measured daily before, during and after treatment (using Vernier calipers) and the tumor volume was calculated using the prolate ellipsoid formula: (length×width^2)/2. Treatment with test or control articles began 8 days post tumor cell implantation when the tumor was approximately 300 mm^3.
A similar study was conducted in CD-1 nude mice (n=9) inoculated with 2×10^6 BxPC-3 cells. The study was initiated when tumors reached an average size of 150 mm^3 (day 0) and CPI-613 was administered at an oral dose of 100 mg/week for 4 weeks. A comparator arm (n=9) was conducted with IP treatment at a weekly dose of 25 mg/kg.

Data set [3] in a line: Clinical study of CPI-613 Drug Compound with gemcitabine hydrochloride and nab-paclitaxel: tolerance. In kind it is in vivo. Particulars: 500 mg/m^2 with Gemcitabine+nab-paclitaxel on days 1 and 15, human patients. The source says: Human patients suffering from locally advanced or metastatic pancreatic cancer are to be administered 6,8-bis(benzylsulfanyl)octanoic acid triethanolamine ion pair in combination with gemcitabine hydrochloride and nab-paclitaxel. Experimental procedures are described below.
[…] CPI-613 Drug Compound is 6,8-bis(benzylsulfanyl)octanoic acid triethanolamine ion pair.

In the case of `O=C(O)CCCCC(CCSCc1ccccc1)SCc1ccccc1` (stereo not drawn) [6,8-bis(benzylsulfanyl)octanoic acid], the tumor growth result in data set [1] is reported as “grew much more slowly”; in data set [2] it was “especially pronounced”. With `O=C(O)CCCCC(CCSCc1ccccc1)SCc1ccccc1.OCCN(CCO)CCO` (stereo not drawn) [CPI-613 Drug Compound, 6,8-bis(benzylsulfanyl)octanoic acid triethanolamine ion pair], in data set [3], the tolerance of regimen result was “excellent tolerance”.

For the origin of these results see patent publication US11622950B2.
